Test results as given in patent US12011444B2, “N-substituted indole derivatives as PGE2 receptor modulators” (Idorsia Pharmaceuticals Ltd, priority 2015, dated 2024).

Key:
[1] = biological target: PTGER2 (EP2) (Homo sapiens (Human), UniProt P43116); test: hEP2 b-arrestin assay (PathHunter HEK 293 PTGER2 b-arrestin cells); assay type: cell-based; settings: hEP2 b-arrestin assay (values without asterisk)
Method in brief: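 Readout is β-galactosidase complementation luminescence, expressed as percent of DMSO control (duplicates). PathHunter HEK293 EP2/β-arrestin 2 cells, grown 24 h, received compound for 15 min at 37 °C before a 120 min challenge with PGE2 at 5 μM final, followed by 1 h detection at room temperature.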

[2] = biological target: PTRGER4 (EP4) (Homo sapiens (Human), UniProt P35408); test: hEP4 b-arrestin assay (PathHunter HEK 293 PTGER4 b-arrestin cells); assay type: cell-based; settings: hEP4 b-arrestin assay (values without asterisk)
PTRGER4 (EP4), sequence (P35408 whole entry, looked up, the tested form may be a part): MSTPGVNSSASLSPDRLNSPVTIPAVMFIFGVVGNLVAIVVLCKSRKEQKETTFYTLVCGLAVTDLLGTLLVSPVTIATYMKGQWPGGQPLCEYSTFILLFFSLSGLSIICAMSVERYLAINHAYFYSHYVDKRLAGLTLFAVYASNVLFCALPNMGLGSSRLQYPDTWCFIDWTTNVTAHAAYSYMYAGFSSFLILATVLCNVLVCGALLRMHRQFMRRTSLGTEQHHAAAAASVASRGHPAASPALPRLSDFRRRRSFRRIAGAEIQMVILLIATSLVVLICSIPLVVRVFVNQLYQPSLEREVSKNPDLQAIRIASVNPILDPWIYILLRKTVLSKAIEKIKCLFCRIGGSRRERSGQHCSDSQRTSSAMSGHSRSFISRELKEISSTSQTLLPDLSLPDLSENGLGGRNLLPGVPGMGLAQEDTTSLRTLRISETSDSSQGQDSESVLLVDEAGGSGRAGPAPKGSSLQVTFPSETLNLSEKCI
Method in brief: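 Antagonist mode: compound is given 15 min at 37 °C, then 20 nM (final) PGE2 for 120 min, in HEK293 cells stably expressing EP4 fused to ProLink and β-arrestin 2 fused to EA. Recruitment read as β-gal luminescence after 1 h reagent at room temperature, as percent of DMSO control.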

PTGER2 (EP2), sequence (P43116 whole entry): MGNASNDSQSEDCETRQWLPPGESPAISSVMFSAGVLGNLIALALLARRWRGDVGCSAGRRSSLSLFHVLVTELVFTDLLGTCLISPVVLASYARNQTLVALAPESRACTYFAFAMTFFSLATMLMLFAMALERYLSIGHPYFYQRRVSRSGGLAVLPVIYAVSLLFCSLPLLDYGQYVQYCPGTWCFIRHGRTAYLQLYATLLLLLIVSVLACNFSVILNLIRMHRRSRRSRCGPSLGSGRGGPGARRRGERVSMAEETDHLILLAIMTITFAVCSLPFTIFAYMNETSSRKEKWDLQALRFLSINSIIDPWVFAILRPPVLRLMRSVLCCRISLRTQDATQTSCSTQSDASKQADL

Row | Structure (SMILES) | IC50 [1] | IC50 [2]
1 | CCOc1cc(-c2cc(NCCn3c(C#N)cc4c(C)c(F)cc(F)c43)ncn2)sc1C(=O)O [Example 940, 5-{6-[2-(2-Cyano-5,7-difluoro-4-methyl-indol-1-yl)-ethylamino]-pyrimidin-4-yl}-3-ethoxy-thiophene-2-carboxylic acid] | 10 nM | 3 nM
2 | CCOc1cc(-c2cc(NCCn3c(C#N)cc4c(C)cc(F)c(F)c43)ncn2)sc1C(=O)O [Example 942, 5-{6-[2-(2-Cyano-6,7-difluoro-4-methyl-indol-1-yl)-ethylamino]-pyrimidin-4-yl}-3-ethoxy-thiophene-2-carboxylic acid] | 3 nM | 6 nM
3 | CCOc1cc(-c2cc(NCCn3c(C#N)cc4c(OC)cc(F)c(F)c43)ncn2)sc1C(=O)O [Example 943, 5-{6-[2-(2-Cyano-6,7-difluoro-4-methoxy-indol-1-yl)-ethylamino]-pyrimidin-4-yl}-3-ethoxy-thiophene-2-carboxylic acid] | 4 nM | 2 nM
4 | CCOc1cc(-c2cc(NCCn3c(C#N)cc4c(OC)cc(F)c(F)c43)ncn2)ccc1OCC(=O)O [Example 944, (4-{6-[2-(2-Cyano-6,7-difluoro-4-methoxy-indol-1-yl)-ethylamino]-pyrimidin-4-yl}-2-ethoxy-phenoxy)-acetic acid] | 16 nM | 7 nM
5 | CCOc1cc(-c2cc(NCCn3c(C#N)cc4c(OC)cc(F)c(F)c43)ncn2)ccc1NCC(=O)O [Example 945, (4-{6-[2-(2-Cyano-6,7-difluoro-4-methoxy-indol-1-yl)-ethylamino]-pyrimidin-4-yl}-2-ethoxy-phenylamino)-acetic acid] | 9 nM | 2 nM
6 | COc1ccc(F)c2c1cc(C#N)n2CCNc1cc(-c2ccc(C(=O)O)c(CC(C)C)c2)ncn1 [Example 946, 4-{6-[2-(2-Cyano-7-fluoro-4-methoxy-indol-1-yl)-ethylamino]-pyrimidin-4-yl}-2-isobutyl-benzoic acid] | 54 nM | 10 nM
7 | CCCc1cc(-c2cc(NCCn3c(C#N)cc4c(OC)ccc(F)c43)ncn2)ccc1C(=O)O [Example 947, 4-{6-[2-(2-Cyano-7-fluoro-4-methoxy-indol-1-yl)-ethylamino]-pyrimidin-4-yl}-2-propyl-benzoic acid] | 30 nM | 16 nM
8 | CCc1cc(-c2cc(NCCn3c(C#N)cc4c(OC)ccc(F)c43)ncn2)ccc1C(=O)O [Example 948, 4-{6-[2-(2-Cyano-7-fluoro-4-methoxy-indol-1-yl)-ethylamino]-pyrimidin-4-yl}-2-ethyl-benzoic acid] | 50 nM | 45 nM
9 | COc1ccc(F)c2c1cc(C#N)n2CCNc1cc(-c2ccc(C(=O)O)c(OCC(C)C)c2)ncn1 [Example 949, 4-{6-[2-(2-Cyano-7-fluoro-4-methoxy-indol-1-yl)-ethylamino]-pyrimidin-4-yl}-2-isobutoxy-benzoic acid] | 7 nM | 14 nM
10 | CCCOc1cc(-c2cc(NCCn3c(C#N)cc4c(OC)ccc(F)c43)ncn2)ccc1C(=O)O [Example 950, 4-{6-[2-(2-Cyano-7-fluoro-4-methoxy-indol-1-yl)-ethylamino]-pyrimidin-4-yl}-2-propoxy-benzoic acid] | 18 nM | 42 nM
11 | CCSc1cc(-c2cc(NCCn3c(C#N)cc4c(C)ccc(F)c43)ncn2)ccc1C(=O)O [Example 951, 4-{6-[2-(2-Cyano-7-fluoro-4-methyl-indol-1-yl)-ethylamino]-pyrimidin-4-yl}-2-ethylsulfanyl-benzoic acid] | 15 nM | 27 nM
12 | CCSc1cc(-c2cc(NCCn3c(C#N)cc4c(OC)cccc43)ncn2)ccc1C(=O)O [Example 952, 4-{6-[2-(2-Cyano-4-methoxy-indol-1-yl)-ethylamino]-pyrimidin-4-yl}-2-ethylsulfanyl-benzoic acid] | 5 nM | 21 nM
13 | CCSc1cc(-c2cc(NCCn3c(C#N)cc4c(OC)ccc(F)c43)ncn2)ccc1C(=O)O [Example 953, 4-{6-[2-(2-Cyano-7-fluoro-4-methoxy-indol-1-yl)-ethylamino]-pyrimidin-4-yl}-2-ethylsulfanyl-benzoic acid] | 5 nM | 21 nM
14 | CCSc1cc(-c2cc(NCCn3c(C#N)cc4c(OC)cc(F)cc43)ncn2)ccc1C(=O)O [Example 954, 4-{6-[2-(2-Cyano-6-fluoro-4-methoxy-indol-1-yl)-ethylamino]-pyrimidin-4-yl}-2-ethylsulfanyl-benzoic acid] | 15 nM | 41 nM
15 | CCOc1cc(-c2cc(NCCn3c(C#N)cc4c(C)cc(F)c(F)c43)ncn2)ccc1C(=O)O [Example 956, 4-{6-[2-(2-Cyano-6,7-difluoro-4-methyl-indol-1-yl)-ethylamino]-pyrimidin-4-yl}-2-ethoxy-benzoic acid] | 21 nM | 37 nM
16 | CCOc1cc(-c2cc(NCCn3c(C#N)cc4c(OC)cc(F)c(F)c43)ncn2)ccc1C(=O)O [Example 957, 4-{6-[2-(2-Cyano-6,7-difluoro-4-methoxy-indol-1-yl)-ethylamino]-pyrimidin-4-yl}-2-ethoxy-benzoic acid] | 56 nM | 54 nM
17 | CNc1cc(-c2cc(NCCn3c(C#N)cc4c(OC)cccc43)ncn2)ccc1C(=O)O [Example 958, 4-{6-[2-(2-Cyano-4-methoxy-indol-1-yl)-ethylamino]-pyrimidin-4-yl}-2-methylamino-benzoic acid] | 13 nM | 18 nM
18 | COC(=O)c1ccc2cc(-c3cc(NCCn4c(C#N)cc5c(OC)ccc(F)c54)ncn3)[nH]c2c1 [Example 959, 2-{6-[2-(2-Cyano-7-fluoro-4-methoxy-indol-1-yl)-ethylamino]-pyrimidin-4-yl}-1H-indole-6-carboxylic acid methyl ester] | 3 nM | 137 nM
19 | COc1ccc(F)c2c1cc(C#N)n2CCNc1cc(-c2cc3cc(C(=O)O)ccc3[nH]2)ncn1 [Example 960, 2-{6-[2-(2-Cyano-7-fluoro-4-methoxy-indol-1-yl)-ethylamino]-pyrimidin-4-yl}-1H-indole-5-carboxylic acid] | 9 nM | 4 nM
20 | COc1ccc(F)c2c1cc(C#N)n2CCNc1cc(-c2cc3ccccc3[nH]2)ncn1 [Example 961, 7-Fluoro-1-{2-[6-(1H-indol-2-yl)-pyrimidin-4-ylamino]-ethyl}-4-methoxy-1H-indole-2-carbonitrile] | 12 nM | 34 nM
21 | COC(=O)c1ccc2[nH]c(-c3cc(NCCn4c(C#N)cc5c(OC)ccc(F)c54)ncn3)cc2c1 [Example 962, 2-{6-[2-(2-Cyano-7-fluoro-4-methoxy-indol-1-yl)-ethylamino]-pyrimidin-4-yl}-1H-indole-5-carboxylic acid methyl ester] | 3 nM | 11 nM
22 | COCCOc1ccc(-c2cc(NCCn3c(C#N)cc4c(OC)ccc(F)c43)ncn2)cc1 [Example 963, 7-Fluoro-4-methoxy-1-(2-{6-[4-(2-methoxy-ethoxy)-phenyl]-pyrimidin-4-ylamino}-ethyl)-1H-indole-2-carbonitrile] | 194 nM | 126 nM
23 | COc1ccc(F)c2c1cc(C#N)n2CCNc1cc(-c2ccc(OCCO)cc2)ncn1 [Example 964, 7-Fluoro-1-(2-{6-[4-(2-hydroxy-ethoxy)-phenyl]-pyrimidin-4-ylamino}-ethyl)-4-methoxy-1H-indole-2-carbonitrile] | 41 nM | 22 nM
24 | COc1ccc(F)c2c1cc(C#N)n2CCNc1cc(-c2ccc3cc[nH]c3c2)ncn1 [Example 966, 7-Fluoro-1-{2-[6-(1H-indol-6-yl)-pyrimidin-4-ylamino]-ethyl)-4-methoxy-1H-indole-2-carbonitrile] | 14 nM | 31 nM
25 | COc1ccc(F)c2c1cc(C#N)n2CCNc1cc(-c2c[nH]c3cnccc23)ncn1 [Example 967, 7-Fluoro-4-methoxy-1-{2-[6-(1H-pyrrolo[2,3-c]pyridin-3-yl)-pyrimidin-4-ylamino]-ethyl}-1H-indole-2-carbonitrile] | 6 nM | 17 nM
26 | COc1ccc(F)c2c1cc(C#N)n2CCNc1cc(-c2c[nH]c3ccccc23)ncn1 [Example 968, 7-Fluoro-1-{2-[6-(1H-indol-3-yl)-pyrimidin-4-ylamino]-ethyl)-4-methoxy-1H-indole-2-carbonitrile] | 4 nM | 15 nM
27 | COc1ccc(F)c2c1cc(C#N)n2CCNc1cc(-c2cccc3[nH]ccc23)ncn1 [Example 969, 7-Fluoro-1-{2-[6-(1H-indol-4-yl)-pyrimidin-4-ylamino]-ethyl)-4-methoxy-1H-indole-2-carbonitrile] | 56 nM | 25 nM
28 | COc1ccc(F)c2c1cc(C#N)n2CCNc1cc(-c2ccc3c(c2)CNC(=O)N3)ncn1 [Example 970, 7-Fluoro-4-methoxy-1-{2-[6-(2-oxo-1,2,3,4-tetrahydro-quinazolin-6-yl)-pyrimidin-4-ylamino]-ethyl)-1H-indole-2-carbonitrile] | 31 nM | 27 nM
29 | COc1ccc(F)c2c1cc(C#N)n2CCNc1cc(-c2ccc(NC=O)cc2)ncn1 [Example 971, N-(4-{6-[2-(2-Cyano-7-fluoro-4-methoxy-indol-1-yl)-ethylamino]-pyrimidin-4-yl}-phenyl)-formamide] | 39 nM | 24 nM
30 | COc1ccc(F)c2c1cc(C#N)n2CCNc1cc(-c2ccc3[nH]c(=O)oc3c2)ncn1 [Example 972, 7-Fluoro-4-methoxy-1-{2-[6-(2-oxo-2,3-dihydro-benzooxazol-6-yl)-pyrimidin-4-ylamino]-ethyl}-1H-indole-2-carbonitrile] | 6 nM | 18 nM
